Laboratory results reported in the NIST ThermoML archive (doi:10.1021/je8009336).

What was measured:
[1] = refractive index (Na D-line) (dimensionless); xn = mol fraction of the nth substance listed; conditions: 313.15 K, 101 kPa, Liquid, Standard Abbe refractometry
[2] = xn = mol fraction of the nth substance listed; conditions: 313.15 K, 101 kPa, Liquid; for speed of sound: Vibrating Tube Densimeter; for mass density: Vibrating tube method

C1CCCC1 [cyclopentane] + CCc1ccccc1
Conditions | mass density, [2] [kg/m3] | refractive index, [1] | speed of sound, [2] [m/s]
x1 = 0.0393 | 845.5 | 1.48234 | 1251.9
x1 = 0.083 | 841.2 | 1.47928 | 1246.4
x1 = 0.1874 | 830.5 | 1.4714 | 1232.9
x1 = 0.2847 | 820 | 1.46405 | 1219.9
x1 = 0.3689 | 810.5 | 1.45715 | 1209.3
x1 = 0.541 | 789.9 | 1.44226 | 1186.8
x1 = 0.6281 | 778.7 | 1.43421 | 1175.5
x1 = 0.687 | 770.9 | 1.42853 | 1168
x1 = 0.7988 | 755.3 | 1.41702 | 1154
x1 = 0.898 | 740.8 | 1.40651 | 1141.9
x1 = 0.9475 | 733.2 | 1.40072 | 1135.9
x1 = 1 | 725 | 1.39456 | 1130

C1CCCC1 [cyclopentane] + Cc1ccccc1
Conditions | mass density, [2] [kg/m3] | refractive index, [1] | speed of sound, [2] [m/s]
x1 = 0.0418 | 843.6 | 1.48201 | 1235.6
x1 = 0.0924 | 838 | 1.47801 | 1228.7
x1 = 0.1907 | 826.8 | 1.46979 | 1215.8
x1 = 0.2717 | 817.3 | 1.46313 | 1205.2
x1 = 0.3579 | 807 | 1.45562 | 1194.8
x1 = 0.4944 | 790.4 | 1.44336 | 1178.6
x1 = 0.5862 | 778.9 | 1.43503 | 1168.4
x1 = 0.6895 | 765.8 | 1.42526 | 1157.4
x1 = 0.7951 | 752.2 | 1.41512 | 1147.3
x1 = 0.8958 | 738.9 | 1.40537 | 1138.3
x1 = 0.9456 | 732.3 | 1.40037 | 1134.2
x1 = 1 | 725 | 1.39456 | 1130

C1CCCC1 [cyclopentane] + c1ccccc1
Conditions | mass density, [2] [kg/m3] | refractive index, [1] | speed of sound, [2] [m/s]
x1 = 0.0366 | 852 | 1.48417 | 1224.4
x1 = 0.0941 | 843.4 | 1.47833 | 1215.7
x1 = 0.1945 | 828.6 | 1.46795 | 1200.6
x1 = 0.2706 | 817.8 | 1.46049 | 1190.2
x1 = 0.3937 | 800.7 | 1.44843 | 1175.5
x1 = 0.4893 | 787.8 | 1.43934 | 1165
x1 = 0.5917 | 774.4 | 1.42988 | 1155.3
x1 = 0.6893 | 762.1 | 1.4211 | 1147.2
x1 = 0.7983 | 748.6 | 1.41158 | 1139.7
x1 = 0.8971 | 736.8 | 1.40315 | 1134.2
x1 = 0.9471 | 731 | 1.39904 | 1132
x1 = 1 | 725 | 1.39456 | 1130
